The term Emax denotes the maximal effect, on the per cent scale that the assay sets.

This note sets out measurements from patent US20240390357A1, “PYRIDINES AND THEIR USE IN TREATMENT OF GBA-RELATED DISEASES” (ZEVRA DENMARK A/S, priority 2021, published 2024).

This test addresses T1, GBA (glucosylceramidase, GCase), L444P GBA mutation (Homo sapiens, UniProt P04062, L483P).
T1 construct: Human fibroblast cell line GM10915 harboring the L444P GBA mutation was obtained from Coriell Biorepositories; host or cells: GM10915 human fibroblasts
T1 sequence (P04062 40-536 L483P): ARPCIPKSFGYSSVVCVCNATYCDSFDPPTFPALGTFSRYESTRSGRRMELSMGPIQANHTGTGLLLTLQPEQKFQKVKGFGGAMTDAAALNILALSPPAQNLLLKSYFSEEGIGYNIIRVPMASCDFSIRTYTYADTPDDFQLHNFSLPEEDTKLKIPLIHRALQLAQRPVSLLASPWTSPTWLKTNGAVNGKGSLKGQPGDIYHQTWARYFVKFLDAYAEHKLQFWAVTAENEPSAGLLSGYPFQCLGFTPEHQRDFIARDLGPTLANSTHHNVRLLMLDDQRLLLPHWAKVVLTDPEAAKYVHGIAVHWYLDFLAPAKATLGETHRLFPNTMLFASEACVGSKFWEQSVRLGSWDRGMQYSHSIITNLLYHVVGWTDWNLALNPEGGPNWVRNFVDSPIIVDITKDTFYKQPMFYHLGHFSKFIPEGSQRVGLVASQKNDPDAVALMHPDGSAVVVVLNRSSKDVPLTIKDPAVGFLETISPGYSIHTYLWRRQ
The test is described as follows: GCase activity assay (4-MUG) in GM10915 fibroblasts, normalised to crystal violet staining. As to conditions: five days exposure; for GBA EC1.5: concentration where Percent GCase activity = 150% (1.5-fold induction), human fibroblast cell line GM10915 (L444P GBA), 8-point dose range; for Emax / GBA Emax: maximum Percent GCase activity in the dose range tested, relative to basal activity of untreated cells, GM10915 (L444P GBA). The test is classed as cell-based. Here is the method: Human fibroblast cell line GM10915 harboring the L444P GBA mutation was obtained from Coriell Biorepositories.
The GM10915 cell line was cultured under standard cell culture conditions (37° C. and 5% CO2) in complete DMEM medium supplemented with nonessential amino acids (NEAA), 1% Pen-Strep and 12% FCS. Cells were seeded at a density of 10^4 cells/well in 100 μL complete medium in one black 96-well plate for glucosylceramidase (GCase) activity measurement and in one clear 96-well plate for crystal violet staining to correct for cell density. Crystal violet staining is performed to obtain quantitative information about the relative density of cells adhering to multi-wells plates.
The assay was adapted from Sawkar et al (2002) and briefly described in the following. The day after seeding of cells, the medium was replaced with fresh medium containing the compounds to be tested. Compounds were tested in duplicate and in an 8-point diluted dose range to obtain a dose response. Cells were exposed with compounds for five days. Fresh compound was added every 2-3 days. PBS was included to define the basal level of GCase activity.
Cells were washed three times with 200 μL PBS per well and 50 μL of 2.5 mM 4-MUG buffer (4-MUG dissolved in 0.2 M acetate buffer pH 4.0) was added and the cells were incubated at 37° C., 5% CO2 for 23 hours. The reaction was stopped by adding 150 μL 0.2 M glycine buffer (pH 10.8). Fluorescence was measured with a Varioskan® Flash reader (Thermo Scientific) at an excitation/emission setting of 365/445 nm.
Cells were treated with compounds in a parallel setup identical to the setup to test for GCase activity. At the end of compound treatment, cells were washed once with 200 μL PBS per well and 50 μL 0.1% w/v crystal violet (in H20) was added. Following 10 min. of incubation, the crystal violet solution was removed, and the cells were washed three times with 200 μL PBS and 100 μL 1% SDS was added to solubilize the stain.
The plate was agitated on an orbital shaker for 10-30 min. Absorbance (A) is measured at […] using a Varioskan® Flash reader (Thermo Scientific).
The fluorescence signal (F) derived from the GCase measurement is normalized to the absorbance signal (A) derived from the crystal violet staining. The percent GCase activity resulting from compound treatment is calculated relative to the basal activity obtained from untreated cells.
Maximal effect of compounds (E max) is determined from the dose response effects as the maximum “Percent GCase activity” achieved in the dose range tested.

SMILES strings stand for the structures. Marks after values point to notes of the source that are not given here.

On to `Nc1c(Br)cc(Br)cc1CN[C@H]1CC[C@H](O)CC1` [Ambroxol, reference compound], for which the “GBA EC1.5” value is given as >20* *The 1.5-fold induction criteria was not reached within the tested concentration range μM. As for `CCCCCO[C@H]1CC[C@H](NC(=O)c2cnn3c(C)cc(C)nc23)CC1` [LTI-291, reference compound], the “GBA EC1.5” value came out at 112 µM. As to `c1cc(CN2CCCCC2)cc(C2CCNCC2)n1` [compound 540], the “GBA EC1.5” value was 5.4 µM and the Emax worked out at 177%.

As for `c1c(C2CCNCC2)noc1CN1CCCCC1` [compound 586], the “GBA EC1.5” value turned out to be 7.5 µM and the maximal response (Emax) was found to be 234%. With `C1CCN(Cc2noc(C3CCCNC3)n2)CC1` (stereo not drawn) [compound 614], the “GBA EC1.5” value is 46 µM and the Emax amounted to 169%. As for `c1nc(C2CCNCC2)sc1CN1CCCCC1` [compound 620], the “GBA EC1.5” value amounted to 3.5 µM and the Emax was found to be 236%. Take `c1cn(C2CCNCC2)nc1CN1CCCCC1` [compound 624]: the “GBA EC1.5” value was determined as 21 µM and the maximal effect (Emax) stood at 189%.

As for `c1cc(CN2CCCCC2)nc(C2CCNCC2)n1` [compound 638], the “GBA EC1.5” value amounted to 4.1 µM and the Emax was determined as 263%. Regarding `c1c(C2CCNC2)noc1CN1CCCCC1` (stereo not drawn) [compound 654], the “GBA EC1.5” value came to 4.9 µM and the maximum response (Emax) is 381%. In the same order, the values of `C1=C(c2ccc(CN3CCCCC3)cn2)CNC1` [compound 666] are 9.2 µM and 253%. Consider `Cn1nc(C2CCCNC2)cc1CN1CCCCC1` (stereo not drawn) [compound 708], for which the “GBA EC1.5” value came to 16 µM and the Emax is 205%. In the case of `COc1ncc(C2CCNCC2)cc1CN1CCCCC1` [compound 715], the “GBA EC1.5” value was found to be 24.8 µM and the maximal response (Emax) was found to be 160%. Take `COc1ncc(C2CCCNC2)cc1CN1CCCCC1` (stereo not drawn) [compound 729]: the “GBA EC1.5” value was 2.7 µM and the Emax is 223%. Regarding `Cc1cc(C2CCCNC2)nc(CN2CCCCC2)n1` (stereo not drawn) [compound 730], the “GBA EC1.5” value is 5.0 µM and the “GBA Emax” value was found to be 234%. In the case of `Cc1cc(CN2CCCCC2)nc(C2CCCNC2)c1` (stereo not drawn) [compound 732], the “GBA EC1.5” value came to 3.2 µM and the maximal response (Emax) was determined as 200%. For the compound `COc1ncc(C2CCN(C)CC2)cc1CN1CCCCC1` [compound 735], the “GBA EC1.5” value turned out to be 2.3 µM and the Emax was 212%. For `CN1CCCC(c2cncc(CN3CCCCC3)c2)C1` (stereo not drawn) [compound 736] the same measures were 3.7 µM and 216%.

`Cc1cc(C2CCCNC2)nc(CN2CCCCC2)n1` (stereo not drawn) [compound 737]: the “GBA EC1.5” value was found to be 21.5 µM and the “GBA Emax” value is 203%. Take `Cc1cc(C2CCCN(C)C2)nc(CN2CCCCC2)n1` (stereo not drawn) [compound 738]: the “GBA EC1.5” value came to 5.4 µM and the maximal effect (Emax) amounted to 248%. Regarding `Cc1cc(C2CCNCC2)nc(CN2CCCCC2)n1` [compound 739], the “GBA EC1.5” value turned out to be 30.8 µM and the Emax came out at 176%. As to `c1nc(C2CCNCC2)cnc1CN1CCCCC1` [compound 753], the “GBA EC1.5” value came to 19.1 µM and the Emax is 190%. For `c1nc(C2CCCNC2)cnc1CN1CCCCC1` (stereo not drawn) [compound 754], the “GBA EC1.5” value turned out to be 11.8 µM and the Emax was determined as 180%. For `c1cc(CN2CCCCC2)ncc1C1CCCNC1` (stereo not drawn) [compound 757], the “GBA EC1.5” value was found to be 4.2 µM and the maximal response (Emax) was found to be 214%. In the same order, the values of `Cc1cc(CN2CCCCC2)cnc1C1CCCNC1` (stereo not drawn) [compound 758] are 3.1 µM and 233%. On to `c1cc(C2CCNCC2)ncc1CN1CCCCC1` [compound 759], for which the “GBA EC1.5” value was determined as 6.6 µM and the Emax was 200%. As for `Cc1cc(CN2CCCCC2)cnc1C1CCNCC1` [compound 760], the “GBA EC1.5” value is 4.3 µM and the Emax was 211%. Take `CC(c1cncc(C2CCCNC2)c1)N1CCCCC1` (stereo not drawn) [compound 761]: the “GBA EC1.5” value came out at 5.2 µM and the Emax was found to be 205%. Regarding `Cc1cc(CN2CCCCC2)cc(C2CCNCC2)n1` [compound 764], the “GBA EC1.5” value was 3.3 µM and the Emax amounted to 227%. `c1ncc(C2CCNC2)cc1CN1CCCCC1` (stereo not drawn) [compound 769]: the “GBA EC1.5” value stood at 18.9 µM and the Emax turned out to be 205%. `CC(c1cncc(C2CCNCC2)c1)N1CCCCC1` (stereo not drawn) [compound 772]: the “GBA EC1.5” value came out at 18.5 µM and the maximal effect (Emax) was determined as 211%. Turning to `CN1CCCC(c2cnc(CN3CCCCC3)cn2)C1` (stereo not drawn) [compound 773], the “GBA EC1.5” value is 3.9 µM and the Emax is 236%. On to `CN1CCC(c2cnc(CN3CCCCC3)cn2)CC1` [compound 774], for which the “GBA EC1.5” value turned out to be 9.7 µM and the maximal response (Emax) worked out at 198%. As to `c1cc(CN2CCCCC2)ncc1C1CCNCC1` [compound 775], the “GBA EC1.5” value is 24.5 µM and the Emax came to 186%. In the case of `CN1CCCC(c2ccc(CN3CCCCC3)nc2)C1` (stereo not drawn) [compound 776], the “GBA EC1.5” value is 4.3 µM and the Emax amounted to 200%.

`Cc1cc(CN2CCCCC2)cnc1C1CCN(C)CC1` [compound 777]: the “GBA EC1.5” value came to 6.9 µM and the Emax was 200%.

For the compound `Cc1ccc(CN2CCCCC2)nc1C1CCNCC1` [compound 778], the “GBA EC1.5” value was 7.4 µM and the Emax was 152%.

For the compound `CN1CCC(c2cc(CN3CCCCC3)ncn2)CC1` [compound 784], the “GBA EC1.5” value turned out to be 6.5 µM and the maximum response (Emax) was found to be 155%. For the compound `c1cc(CN2CCCCC2)nc(C2CCNCC2)c1` [compound 788], the “GBA EC1.5” value was 8.0 µM and the Emax worked out at 278%. Turning to `c1cc(CN2CCCCC2)nc(C2CCCNC2)c1` (stereo not drawn) [compound 791], the “GBA EC1.5” value was 4.4 µM and the Emax stood at 165%.

On to `c1cc(CN2CCCCC2)nc(C2CCNC2)c1` (stereo not drawn) [compound 793], for which the “GBA EC1.5” value was determined as 29.2 µM and the Emax was found to be 165%. As to `CN1CCC(c2cccc(CN3CCCCC3)n2)CC1` [compound 794], the “GBA EC1.5” value came out at 3.0 µM and the Emax is 269%.

With `Cc1cc(CN2CCCCC2)cc(C2CCN(C)CC2)n1` [compound 795], the “GBA EC1.5” value amounted to 7.0 µM and the Emax came to 185%.

With `CN1CCCC(c2cccc(CN3CCCCC3)n2)C1` (stereo not drawn) [compound 796], the “GBA EC1.5” value stood at 2.6 µM and the Emax came out at 267%. In the same order, the values of `CN1CCC(c2cccc(CN3CCCCC3)n2)C1` (stereo not drawn) [compound 798] are 2.5 µM and 250%. `Cc1ccc(CN2CCCCC2)nc1C1CCN(C)CC1` [compound 801]: the “GBA EC1.5” value was 3.9 µM and the Emax stood at 173%.

`CN1CCCC(c2cc(CN3CCCCC3)ncn2)C1` (stereo not drawn) [compound 802]: the “GBA EC1.5” value was determined as 8.8 µM and the Emax was 256%. For the compound `COc1ncc(C2CCNC2)cc1CN1CCCCC1` (stereo not drawn) [compound 803], the “GBA EC1.5” value is 6.0 µM and the Emax is 203%. In the same order, the values of `c1cc(CN2CCCCC2)ncc1C1CCNC1` (stereo not drawn) [compound 808] are 28.6 µM and 175%. For `CN1CCCC(c2ccc(CN3CCCCC3)cn2)C1` (stereo not drawn) [compound 810], the “GBA EC1.5” value was found to be 4.9 µM and the maximum response (Emax) was 199%.
